“Also recorded” adds a separate entry of the source.
Key:
Assay type in all cases: cell-based
CRBN-IKZF1 interaction [1] = target: T1, CRBN-IKZF1 interaction (Homo sapiens, UniProt Q96SW2); experiment: MAPPIT forward assay, CRBN receptor fusion + IKZF1 gp130 fusion; conditions: forward configuration; HEK293T cells; EPO; dose-response; IKZF1 isoform 7
T1 construct: expressed in transfected cells; host or cells: HEK293T
Source text: (§1) The traditional MAPPIT assay has been used to monitor protein-protein interactions. A bait protein (protein A) is expressed as a fusion protein in which it is genetically fused to an engineered intracellular receptor domain of the leptin receptor, which is itself fused to the extracellular domain of the erythropoietin (Epo) receptor. Binding of Epo ligand to the Epo receptor component results in activation of receptor-associated intracellular JAK2. However, activated JAK2 cannot activate the leptin receptor to trigger STAT3 binding and its phosphorylation because its tyrosine residues, normally phosphorylated by activated JAK2, have been mutated. […] Activation of STAT3 can be monitored by introduction of a STAT3-responsive reporter gene, including a luciferase-encoding gene or a gene encoding a fluorescent marker such as GFP or some other type of Fluorescent Protein (EGFP etc.). […]
(§2) Full size proteins were fused for each of the target/prey proteins tested, except in the case of IKZF1 where isoform 7 was used. […] Luciferase activity was measured 24 hours after test compound treatment using the Luciferase Assay System kit (PROMEGA, Madison, Wis.) with an Ensight plate reader (PERKIN ELMER LIFE SCIENCES, Waltham, Mass.). […]

CRBN-IKZF1 interaction [2] = target: T1, CRBN-IKZF1 interaction; experiment: MAPPIT inverse assay, CRBN gp130 fusion + IKZF1 receptor fusion; conditions: inverse configuration; HEK293T cells; EPO; dose-response; IKZF1 isoform 7
Source text: as §1, §2

CRBN = target: T2, CRBN (Homo sapiens, UniProt Q96SW2); experiment: CRBN inverse MAPPIT competition assay against TMP-lenalidomide hybrid ligand; conditions: 300 nM TMP-lenalidomide; leptin; HEK293T; specificity versus gp130-REM2 control (CTRL)
T2 construct: expressed in transfected cells; host or cells: HEK293T
Source text: As in Example 6, HEK293T cells were transfected with a plasmid encoding E. coli Dihydrofolate Reductase (DHFR) fused to the tails of the cytoplasmic domain of a mutated leptin receptor (pCLG-DHFR), a plasmid encoding a CRBN prey fused to the gp130 cytoplasmic domain or a plasmid encoding a gp130-REM2 control fusion that can directly interact with the leptin receptor of the DHFR fusion protein, and the STAT3 responsive pXP2d2-rPAPI-luciferase reporter plasmid—using a standard transfection method, as described (Lievens, et al. “Array MAPPIT: high-throughput interactome analysis in mammalian cells.” Journal of Proteome Research 8.2 (2009): 877-886). […] Data points in FIGS. 10A-B represent the average luciferase activity of triplicate samples derived from cells treated with leptin+test compound for the REM2 control (CTRL) or cells treated with leptin+hybrid ligand+test compound (CRBN) relative to leptin (CTRL) or leptin+hybrid ligand (CRBN) only treated samples (the signals obtained in absence of added test compound for both cases is set at 100% of luciferase activity on y-axis). Error bars represent standard deviations. Curves were fit using 4-parameter nonlinear regression in […] PRISM software.

CRBN-IKZF3 interaction [3] = target: T3, CRBN-IKZF3 interaction (Homo sapiens, UniProt Q96SW2); experiment: MAPPIT inverse assay, CRBN gp130 fusion + IKZF3 receptor fusion; set-up: expressed in transfected cells; host or cells: HEK293T; conditions: inverse configuration; HEK293T cells; EPO; dose-response
Source text: as §1, §2

CRBN-IKZF2 interaction = CRBN-IKZF2 interaction (Homo sapiens, UniProt Q96SW2); experiment: MAPPIT inverse assay, CRBN gp130 fusion + IKZF2 receptor fusion; set-up: expressed in transfected cells; host or cells: HEK293T; conditions: inverse configuration; HEK293T cells; EPO; dose-response
Source text: as §1, §2

CRBN-IKZF3 interaction [4] = target: T3, CRBN-IKZF3 interaction; experiment: MAPPIT forward assay, CRBN receptor fusion + IKZF3 gp130 fusion; set-up: MAPPIT chimeric receptor (EPO receptor extracellular domain + signaling-deficient leptin receptor part); expressed in transfected cells; host or cells: HEK293T; conditions: forward configuration; HEK293T cells; EPO; dose-response
Source text: as §1, §2

O=C1CC[C@H](N2Cc3c(OCc4ccc(CN5CCOCC5)cc4)cccc3C2=O)C(=O)N1 [CC-220] was tested, and the “compound-induced binding of IKZF1 to CRBN (luciferase reporter signal)” value (CRBN-IKZF1 interaction [1]) was “can be detected with both the forward and the inverse assay configuration”, the “compound-induced binding of IKZF1 to CRBN (luciferase reporter signal)” value (CRBN-IKZF1 interaction [2]) was “can be detected with both the forward and the inverse assay configuration” and the “competition with TMP-lenalidomide hybrid ligand for binding to CRBN (inhibition of luciferase signal)” value (CRBN) was “specifically inhibit hybrid-ligand induced luciferase reporter activation in a dose-dependent manner; also recorded: competed efficiently”. For the same molecule, the “compound-induced binding of IKZF3 to CRBN (luciferase reporter signal)” value (CRBN-IKZF3 interaction [3]) was “an interaction signal response could be detected”, the “compound-induced binding of IKZF2 to CRBN (luciferase reporter signal)” value (CRBN-IKZF2 interaction) was “an interaction signal response could be detected” and the “compound-induced binding of IKZF3 to CRBN (luciferase reporter signal)” value (CRBN-IKZF3 interaction [4]) was “only in the inverse assay setup an interaction signal response could be detected”.

— patent US20230026360A1, “DETECTION OF MOLECULAR INTERACTIONS” (Orionis Biosciences, Inc., priority 2019, published 2023)
